Our source for the IC50 and EC50 values is US9393232B2 (BeiGene, Ltd., priority 2013, dated 2016).

Assay [1] concerns the target Recombinant human BRD3(1-435) (Homo sapiens (Human), UniProt Q15059). In words: BRD3 TR-FRET biochemical IC50 assay. Format: binding.
For assay [2], the target named is Recombinant human BRD4(1-477) (Homo sapiens (Human), UniProt O60885). Description: BRD4 TR-FRET biochemical IC50 assay. It is filed as binding. The following applies: tetra-acetylated histone peptide. (Time-resolved FRET reads energy transfer from a long-lived donor to a nearby acceptor.)
In assay [3] the target is Recombinant human BRD2(1-473) (Homo sapiens (Human), UniProt P25440). Description: BRD2 TR-FRET biochemical IC50 assay. Format: binding.
Chain of Recombinant human BRD2(1-473) (P25440 1-473): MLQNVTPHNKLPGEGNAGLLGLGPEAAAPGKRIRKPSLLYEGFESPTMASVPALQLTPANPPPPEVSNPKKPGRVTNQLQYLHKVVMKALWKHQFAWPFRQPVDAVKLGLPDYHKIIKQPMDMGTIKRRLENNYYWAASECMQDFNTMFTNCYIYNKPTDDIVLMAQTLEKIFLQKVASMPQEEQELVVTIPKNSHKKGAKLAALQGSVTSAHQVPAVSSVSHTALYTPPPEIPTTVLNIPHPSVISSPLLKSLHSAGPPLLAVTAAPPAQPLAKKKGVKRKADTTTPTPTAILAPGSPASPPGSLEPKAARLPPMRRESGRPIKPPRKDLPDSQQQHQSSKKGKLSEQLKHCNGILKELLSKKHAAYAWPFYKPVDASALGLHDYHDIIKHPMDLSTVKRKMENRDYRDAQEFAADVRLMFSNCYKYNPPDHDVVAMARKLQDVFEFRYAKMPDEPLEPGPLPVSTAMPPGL
In assay [4] the target is Recombinant human BRDT(1-397) (Homo sapiens (Human), UniProt Q58F21). In words: BRDT TR-FRET biochemical IC50 assay. It is filed as binding.
For a further assay, the system named is MV4-11. Description: MV4-11 (3 Days) EC50. It is filed as cell-based.
The mark [5] stands for this setting: TR-FRET, tetra-acetylated histone peptide, read-out: BRD3 IC50.
[6] abbreviates: TR-FRET, tetra-acetylated histone peptide, read-out: BRD2 IC50.
The mark [7] stands for this setting: TR-FRET, tetra-acetylated histone peptide, read-out: BRDT IC50.

Structures are written as SMILES. Read-outs that look alike come from different tables or passages of the source.

Chain of Recombinant human BRD3(1-435) (Q15059 1-435): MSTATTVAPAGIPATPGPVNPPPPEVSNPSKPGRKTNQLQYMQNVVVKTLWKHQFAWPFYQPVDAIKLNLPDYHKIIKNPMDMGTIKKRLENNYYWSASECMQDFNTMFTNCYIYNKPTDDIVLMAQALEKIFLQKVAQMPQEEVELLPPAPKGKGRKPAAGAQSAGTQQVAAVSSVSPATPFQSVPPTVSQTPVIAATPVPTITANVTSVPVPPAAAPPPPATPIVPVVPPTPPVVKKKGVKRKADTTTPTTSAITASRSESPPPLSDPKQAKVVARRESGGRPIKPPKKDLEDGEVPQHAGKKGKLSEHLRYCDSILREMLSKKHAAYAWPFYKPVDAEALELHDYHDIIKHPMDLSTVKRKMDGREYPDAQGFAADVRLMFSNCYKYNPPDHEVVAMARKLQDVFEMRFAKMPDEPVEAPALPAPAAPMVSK

Turning to `Cc1noc(C)c1-c1ccc2c(c1)C(O)(C1CCOCC1)C(=O)N2` (stereo not shown) [Compound 1.16, 5-(3,5-dimethylisoxazol-4-yl)-3-hydroxy-3-(tetrahydro-2H-pyran-4-yl)indolin-2-one], the IC50 worked out at 140 nM in assay [1] (setting [5]); 630 nM in assay [2] (TR-FRET, read-out: BRD4 IC50); 380 nM in assay [3] (setting [6]); 510 nM in assay [4] (setting [7]).

Consider `Cc1noc(C)c1-c1ccc2c(c1)C(c1ccccc1)(N1CCC[C@H](N)C1)C(=O)N2` (stereo partly drawn) [Compound 2.46, 3-((S)-3-aminopiperidin-1-yl)-5-(3,5-dimethylisoxazol-4-yl)-3-phenylindolin-2-one], for which the IC50 in assay [1] (setting [5]) came out at 5.3 nM; in assay [2] (TR-FRET, read-out: BRD4 IC50), 11 nM; in assay [3] (setting [6]), 6.6 nM; in assay [4] (setting [7]), 14 nM.

`Cc1noc(C)c1-c1ccc2c(c1)C(O)(c1ccsc1)C(=O)N2` (single isomer, unassigned) [Compound 4.1b, 5-(3,5-Dimethylisoxazol-4-yl)-3-hydroxy-3-(thiophen-3-yl)indolin-2-one] displayed an EC50 with MV4-11 (Homo sapiens, 72 h) of 73 nM. Besides, the IC50 was 14 nM in assay [1]; 34 nM in assay [2] (BRD4 IC50, TR-FRET); 18 nM in assay [3]; 31 nM in assay [4].

For `Cc1noc(C)c1-c1ccc2c(c1)C(N[C@H](C)CO)(c1ccccc1)C(=O)N2` (single isomer, unassigned) [Compound 2.10a], the results for the concentration for half-maximal inhibition (IC50) in assay [1] (setting [5]), in assay [3] (setting [6]) and in assay [4] (setting [7]) were 23 nM, 24 nM and 69 nM, respectively.

For the compound `Cc1noc(C)c1-c1ccc2c(c1)C(c1ccccc1)(N1CCC[C@H](O)C1)C(=O)N2` (stereo partly drawn) [Compound 2.16, 5-(3,5-dimethylisoxazol-4-yl)-3-((S)-3-hydroxypiperidin-1-yl)-3-phenylindolin-2-one], the figures for the IC50 in assay [1] (setting [5]), in assay [3] (setting [6]) and in assay [4] (setting [7]) were 9.9 nM, 9.6 nM and 23 nM, respectively.

As for `Cc1noc(C)c1-c1ccc2c(c1)C(O)(C1CCCCC1=O)C(=O)N2` (single isomer, unassigned) [Compound 1.30a, 5-(3,5-Dimethylisoxazol-4-yl)-3-hydroxy-3-(2-oxocyclohexyl)indolin-2-one], the IC50 in assay [1] (setting [5]) came to 25 nM; in assay [2] (TR-FRET, read-out: BRD4 IC50) it was 70 nM; in assay [3] (setting [6]), 52 nM; in assay [4] (setting [7]) it was 58 nM.

`Cc1noc(C)c1-c1ccc2c(c1)C(NCC(C)O)(C1CCCCC1)C(=O)N2` (stereo in doubt) [Compound 2.22, 3-cyclohexyl-5-(3,5-dimethylisoxazol-4-yl)-3-((R)-2-hydroxypropylamino)indolin-2-one] came in with an EC50 in the assay with MV4-11 of 116 nM. Besides, the IC50 in assay [1] (setting [5]) worked out at 23 nM; in assay [2] (TR-FRET, read-out: BRD4 IC50) it was 81 nM; in assay [3] (setting [6]), 32 nM; in assay [4] (setting [7]), 42 nM.

The IC50 is the concentration at which inhibition is half-maximal. One may read the EC50 as the concentration needed to bring the measured effect to its halfway point. Low readings indicate an effect from little substance, high ones a need for much substance.
